How the values were obtained:
TNF-α = experiment: Reduction of LPS-induced TNF levels in mice (IP dosing); assay type: in vivo; conditions: 30 μg/mouse IP, one min before LPS 5 mg/kg IP; vs untreated control mice
Description: Balb/c female mice weighing approximately 20 g were placed into two groups, a control group and a treated group. Five mg/kg of LPS in 0.9% saline was administered by intraperitoneal (IP) injection into the control mice. Mice in the treated group were first injected IP with 30 μg EX-2 or 150 μg EX-3 in saline, then, one min after EX-2 or EX-3 was administered, the mice received LPS as described for the control group.
Blood samples were collected from the orbital sinus of treated and control mice at various times up to four hr after LPS was administered. The plasma was separated by centrifugation at 3000×g for 5 min, then diluted with four volumes of 1× phosphate buffer saline (pH 7.4) containing 1% bovine serum albumin. A 100 μl sample of serum was assayed by ELISA for TNF-α (Genzyme; Cambridge Mass.).
The mean (+/- SEM) TNF-α level in six mice from each group was determined and the percent reduction in TNF levels was calculated.

[1] = test system: STZ diabetes, blood glucose; experiment: Streptozotocin-induced diabetes; assay type: in vivo, rats; conditions: 150 μg/kg every 8 hr for 72 hr; STZ 65 mg/kg iv
Description: Male Sprague-Dawley rats were given 65 mg/kg of streptozotocin (STZ) intravenously through the tall vein. Rats were divided into two groups. The first group was administered EX-2, 150 μg/kg every 8 hr for 72 hr and the second group was a control. Blood samples were withdrawn under ether anesthesia every 8 hr for the first 72 hr, then every 12 hr or 24 hr until the end of the observation period. Plasma samples were assayed for glucose using a glucose assay kit (Trinder, Sigma Chemical Co.). As shown in Table VI below EX-2 effect a 72% reduction in blood glucose levels.

[2] = test system: inducible nitric oxide synthase (iNOS); experiment: Inducible nitric oxide synthase (iNOS), cGMP accumulation in rat aorta smooth muscle cells; assay type: cell-based; conditions: RASMC induced with LPS, IL-1β or TNF-α; 0.1 or 1 μM EX-2
Description: Rat aorta smooth muscle cells (RASMC) were isolated from male rats (325-350 g) using the previously published procedures of Gelsterfer et al., Circ. Res. 62:749-756 (1988), which is incorporated herein by reference. Cells were positively identified as smooth muscle cells by indirect immunofluorescent staining for anti-α-actin, using a mouse anti-α-actin antibody and anti-mouse IgG FITC conjugate. Cells were grown in T-75 tissue culture flasks (Corning Delbelco's Glass, Inc.; Corning, NY) in 50% F12 and 50% Delbelco's Modified Eagle Medium (DMEM) supplemented with 10% bovine serum, 0.2 g/1 L-glutamine, penicillin (100 U/ml) and streptomycin (0.1 mg/ml).
Cells between passages 1-5 were pretreated with one of the following: vehicle, LPS (1 μg/ml), IL-1β (10 U/ml), or TNF-α (100 U/ml) for 6 hr. […] Accumulation of cGMP was determined following exposure to 0.3 mM 3-isobutyl-1-methyl xanthine (IBMX in the presence or absence of 1 mM L-arginine. Medium was then rapidly aspirated and 500 μl of 0.1N HCl was added to each well to stop the reactions and extract cGMP. Thirty min later, the HC1 extract was collected and cell remnants removed from the wells by adding hot 1.0N NaOH and scraping the well with a rubber policeman. The HCl extract was analyzed for cGMP by RIA and the NaOH-solubilized cell remnants were used for protein determination. […]

[3] = test system: Carageenan-induced paw swelling; experiment: Carageenan-induced paw swelling; assay type: in vivo, mice; conditions: 1 μg/mouse; 2 hr time point
Description: Carageenan-induced paw swelling was induced using a modification of the methods of Hiltz and Lipton, Peptides 11:979-982 (1990); Vinegar et al., Fed. Proc. 46:118-126 (1987); and Vinegar et al., J. Pharmacol. Expt. Therap. 166:96-103 (1969), each of which is incorporated herein by reference. Briefly, adult female Balb/c mice were anesthetized by IP injection of 7 mg/kg ketoamine and 0.6 mg/kg rompun. Foot pad thickness was measured using a spring loaded micrometer (Swiss Precision Instruments). Foot pad thickness was expressed in units of 1/100 inch. After baseline measurements were obtained, mice were injected into a hind foot pad with either 0.2 ml physiologic saline (control) or varying doses of EX-2 or EX-3 in 0.2 ml saline (treated). The first injection was followed immediately by injection of 0.02 ml of 0.15% K-carageenan (Sigma Chemical Co.; St. Louis, Mo.).
Hind foot pad thickness was measured hourly for six hr, the change in thickness was determined and the percent reduction in swelling due to treatment with EX-2 was calculated.

Ac-Nle-Gln-His-(D)Phe-Arg-(D)Trp-Gly-NH2 [EX-2]
Reduction in TNF levels (TNF-α): 50% | % Reduction, STZ Diabetes, Blood Glucose (mg/dl) [1]: 72% | % Reduction of induced increase, iNOS, cGMP (pmol/100 mg/15 min) [2]: 60% | Reduction in Carageenan-induced Paw Swelling [3]: 45%
